≈ marks a conversion by molar mass, not a printed value. Read-outs that look alike come from different tables or passages of the source. Square brackets hold non-standard residues; d marks the D form. Ends that are not written are not given here. 2Nal = N[C@@H](Cc1ccc2ccccc2c1)C(=O)O
Tests used:
[1] = test system: Pseudomonas aeruginosa (ATCC27853); type: cell-based; settings: for Ps A. IC50: Table 4; for activity against Pseudomonas aeruginosa (in words): gram negative organism
Experimental: (§1) The antimicrobial compounds of the present invention were assayed using a standard microdilution assay against gram-positive bacteria Staphylococcus aureus (strain used: ATTC 29213) and methicillin-resistant strain used ATCC 33591) and the gram-negative bacteria Pseudomonas aeruginosa (strain used ATCC27853). The samples were assayed against 1-5×10^5 colony forming units, in Mueller-Hinton broth, at 37° C. The activity was determined following a 21 hour incubation. The IC50 values were calculated using sigmoidal curve fitting software. (Graphpad™, ISI Software, San Diego, Calif.) and correspond to the sample concentration which inhibits 50 percent of bacterial growth. The minimum inhibitory concenttration (MIC) is defined as the lowest concentration of sample at which no growth is detected by optical density between

[2] = test system: Methicillin resistant Staphylococcus aureus (ATCC 33591); type: cell-based; settings: for MRSA IC50: Table 4; for selectivity between MRSA and P. aeruginosa (in words): comparison of the MRSA and Ps A. IC50 of Table 4; for activity against MRSA (in words): gram-positive organism; for IC50 / MIC: ATCC 33591
Experimental: as §1

Fusarium oxysporum = settings: cited from earlier work
Fusarium moniliforme = settings: cited from earlier work
[3] = Table 2, Mueller-Hinton broth, 37° C., 21 hour incubation, 50 percent inhibition of bacterial growth
[4] = Table 2, lowest concentration at which no growth is detected, 21 hour incubation

Row | Molecule | Ps A. IC50 [1] | MRSA IC50 [2] | IC50 [2] | MIC [2] | other results
1 | 4-AMBψ[CH2NH]Lys-Ser-4-AMBψ[CH2NH]Leu-OH [Compound 38] | > 500 µg/mL | > 500 µg/mL | – | – | –
2 | H-2-Nalψ[CH2NH]Met-4-AMB-Pheψ[CH2NH]Leu-OH [Compound 33] | 163 µg/mL | 17.6 µg/mL | – | – | selectivity between MRSA and P. aeruginosa (in words) [2]: quite selective toward MRSA
3 | H-2-Nal-Lys-Ser-Phe-Leu-OH (H-[2Nal]KSFL-OH; SMILES CC(C)C[C@H](NC(=O)[C@H](Cc1ccccc1)NC(=O)[C@H](CO)NC(=O)[C@H](CCCCN)NC(=O)[C@@H](N)Cc1ccc2ccccc2c1)C(=O)O) [Compound 26] | 388 µg/mL | 184 µg/mL | – | – | activity against Pseudomonas aeruginosa (in words) [1]: modest activity in both assays; activity against MRSA (in words) [2]: modest activity in both assays
4 | H-2-Nalψ[CH2NH]Nle-Aib-Pheψ[CH2NH]Leu-OH [Compound 32] | > 500 µg/mL | 35 µg/mL | – | – | –
5 | CSCCC(NCC(N)Cc1ccc2ccccc2c1)C(=O)NC(C)(C)C(=O)NC(CNC(CC(C)C)C(=O)O)Cc1ccccc1 (stereo not drawn) [Compound 14, H-2-Nalψ[CH2NH]Met-Aib-Pheψ[CH2NH]Leu-OH] | – | – | 3 µg/mL (≈ 4.52 µM) | 8 to 16 µg/mL | IC50 ([1]; ATCC27853, 21 h): 20 µg/mL (≈ 30.1 µM); MIC ([1]; ATCC27853, 21 h): 31 to 62 µg/mL; activity against Pseudomonas aeruginosa (in words) [1]: good potency; activity against MRSA (in words) [2]: also active
6 | CCC(CC)(NC[C@@H](N)Cc1ccc2ccccc2c1)C(=O)N[C@@H](Cc1ccccc1)C(=O)N[C@H](CN[C@@H](CC(C)C)C(=O)O)Cc1ccccc1 [Compound 18, H-2-Nalψ[CH2NH]Deg-Phe-Pheψ[CH2NH]Leu-OH] | – | – | 6 µg/mL (≈ 8.48 µM) | 16 to 32 µg/mL | –
7 | H-2-Nalψ[CH2NH]Met-3-AMB-Pheψ[CH2NH]Leu-OH [Compound 34] | 230 µg/mL | 47 µg/mL | – | – | –
8 | H-2-Nalψ[CH2NH]Lys-Ser-4-AMBψ[CH2NH]Leu-OH [Compound 36] | 32.2 µg/mL | 37.5 µg/mL | – | – | –
9 | CCC(CC)(NC[C@@H](N)Cc1ccc2ccccc2c1)C(=O)N[C@@H](CO)C(=O)N[C@H](CN[C@@H](CC(C)C)C(=O)O)Cc1ccccc1 [Compound 16, H-2-Nalψ[CH2NH]Deg-Ser-Pheψ[CH2NH]Leu-OH] | – | – | 17 µg/mL (≈ 26.2 µM) | 62 to 125 µg/mL | IC50 [1, 3]: 170 µg/mL (≈ 262 µM); MIC [1, 4]: > 250 µg/mL
10 | Ac-2-Nalψ[CH2NH]Lys-Ser-Pheψ[CH2NH]Leu-OH [Compound 24] | 180 µg/mL | 60 µg/mL | – | – | –
11 | H-D-2-Nalψ[CH2NH]Lys-Ser-Pheψ[CH2NH]Leu-OH [Compound 22] | 9.2 µg/mL | 10.9 µg/mL | – | – | activity against Pseudomonas aeruginosa (in words) [1]: active against both; activity against MRSA (in words) [2]: active against both
12 | CC[C@H](C)[C@H](NC[C@@H](N)Cc1ccc2ccccc2c1)C(=O)NC(CC)(CC)C(=O)N[C@H](CN[C@@H](CC(C)C)C(=O)O)Cc1ccccc1 [Compound 21, H-2-Nalψ[CH2NH]Ile-Deg-Pheψ[CH2NH]Leu-OH] | – | – | 34 µg/mL (≈ 50.4 µM) | 40 to 162 µg/mL | –
13 | CC(C)C[C@H](NC[C@H](Cc1ccccc1)NC(=O)[C@H](Cc1ccccc1)NC(=O)[C@H](CCCCN)NC[C@@H](N)Cc1ccc2ccccc2c1)C(=O)O [Compound 3, H-2-Nalψ[CH2NH]Lys-Phe-Pheψ[CH2NH]Leu-OH] | – | – | 19 µg/mL (≈ 26.3 µM) | 125 to 150 µg/mL | IC50 ([1]; ATCC27853, 21 h): 31 µg/mL (≈ 42.9 µM); MIC ([1]; ATCC27853, 21 h): 40 to 62 µg/mL
14 | H-2-Nalψ[CH2NH]Lys(Ac)-Ser-Pheψ[CH2NH]Leu-OH [Compound 28] | 190 µg/mL | 25.8 µg/mL | – | – | –
15 | CCC(CC)(NC(=O)[C@H](CCCCN)NC[C@@H](N)Cc1ccc2ccccc2c1)C(=O)N[C@H](CN[C@@H](CC(C)C)C(=O)O)Cc1ccccc1 [Compound 19, H-2-Nalψ[CH2NH]Lys-Deg-Pheψ[CH2NH]Leu-OH] | – | – | 67 µg/mL (≈ 97.2 µM) | 125 to 250 µg/mL | IC50 ([1]; ATCC27853, 21 h): 143 µg/mL (≈ 208 µM); MIC ([1]; ATCC27853, 21 h): 250 to 500 µg/mL
16 | CC[C@H](C)[C@H](NC[C@@H](N)Cc1ccc2ccccc2c1)C(=O)N[C@H](C(=O)N[C@H](CN[C@@H](CC(C)C)C(=O)O)Cc1ccccc1)C(C)C [Compound 8, H-2-Nalψ[CH2NH]Ile-Val-Pheψ[CH2NH]Leu-OH] | – | – | 5 µg/mL (≈ 7.58 µM) | 8 to 16 µg/mL | –
17 | CCC(CC)(NC(=O)[C@H](CCSC)NC[C@@H](N)Cc1ccc2ccccc2c1)C(=O)N[C@H](CN[C@@H](CC(C)C)C(=O)O)Cc1ccccc1 [Compound 20, H-Nalψ[CH2NH]Met-Deg-Pheψ[CH2NH]Leu-OH] | – | – | 5 µg/mL (≈ 7.23 µM) | 16 to 32 µg/mL | IC50 ([1]; ATCC27853, 21 h): 64 µg/mL (≈ 92.5 µM); MIC ([1]; ATCC27853, 21 h): 80 to 125 µg/mL; activity against Pseudomonas aeruginosa (in words) [1]: good potency

Row | Molecule | Ps A. IC50 [1] | MRSA IC50 [2] | IC50 [2] | MIC [2] | other results
18 | CC(C)C[C@H](NC[C@H](Cc1ccccc1)NC(=O)[C@H](Cc1ccccc1)NC(=O)C(C)(C)NC[C@@H](N)Cc1ccc2ccccc2c1)C(=O)O [Compound 12, H-2-Nalψ[CH2NH]Aib-Phe-Pheψ[CH2NH]Leu-OH] | – | – | 26 µg/mL (≈ 38.2 µM) | 125 to 250 µg/mL | –
19 | Cecropin A: Cecropins are cationic linear peptides isolated from the hemolymph of the giant silk moth; insect-derived antimicrobial peptide (KWKLFKKIEKVGQNIRDGIIKAGPAVAVVGQATQIAK; ends and bridges not checked; UniProt P01507 27-63, looked up) | – | – | – | – | concentration giving total killing (Fusarium oxysporum): 12.4 µg/mL; concentration giving total killing (Fusarium moniliforme): 12.4 µg/mL
20 | H-D-2-Nalψ[CH2NH]D-Lys-D-Ser-D-Pheψ[CH2NH]D-Leu-OH [Compound 29] | 13.9 µg/mL | 18.8 µg/mL | – | – | selectivity between MRSA and P. aeruginosa (in words) [2]: slight selectivity for the gram-negative organisms
21 | H-2-Nalψ[CH2NAc]Met-Aib-Pheψ[CH2NH]Leu-OH [Compound 25] | > 500 µg/mL | 28.7 µg/mL | – | – | selectivity between MRSA and P. aeruginosa (in words) [2]: very selective; activity against MRSA (in words) [2]: quite active
22 | H-2-Nalψ[CH2NAc]Lys-Ser-Pheψ[CH2NH]Leu-OH [Compound 23] | 33.5 µg/mL | 19.6 µg/mL | – | – | activity against Pseudomonas aeruginosa (in words) [1]: active against both; activity against MRSA (in words) [2]: active against both
23 | H-2-Nalψ[CH2NH]Met-Aib-Pheψ[CH2NH]Leu-NH2 [Compound 31] | 94 µg/mL | 10.4 µg/mL | – | – | –
24 | H-D-2-Nalψ[CH2NH]D-Met-Aib-D-Pheψ[CH2NH]D-Leu-OH [Compound 35] | 463 µg/mL | 42.1 µg/mL | – | – | –
25 | CSCC[C@H](NC[C@@H](N)Cc1ccc2ccccc2c1)C(=O)N[C@@H](Cc1ccccc1)C(=O)N[C@H](CN[C@@H](CC(C)C)C(=O)O)Cc1ccccc1 [Compound 6, H-2-Nalψ[CH2NH]Met-Phe-Pheψ[CH2NH]Leu-OH] | – | – | 44 µg/mL (≈ 60.6 µM) | 125 to 250 µg/mL | –
26 | CC(C)C[C@H](NC[C@H](Cc1ccccc1)NC(=O)C(C)(C)NC(=O)[C@H](CCCCN)NC[C@@H](N)Cc1ccc2ccccc2c1)C(=O)O [Compound 13, H-2-Nalψ[CH2NH]Lys-Aib-Pheψ[CH2NH]Leu-OH] | – | – | 54 µg/mL (≈ 81.7 µM) | 125 to 250 µg/mL | IC50 ([1]; ATCC27853, 21 h): 59 µg/mL (≈ 89.3 µM); MIC ([1]; ATCC27853, 21 h): 80 to 125 µg/mL; activity against Pseudomonas aeruginosa (in words) [1]: good potency
27 | CC[C@H](C)[C@H](NC[C@@H](N)Cc1ccc2ccccc2c1)C(=O)NC(C)(C)C(=O)N[C@H](CN[C@@H](CC(C)C)C(=O)O)Cc1ccccc1 [Compound 15, H-2-Nalψ[CH2NH]Ile-Aib-Pheψ[CH2NH]Leu-OH] | – | – | 39 µg/mL (≈ 60.4 µM) | 80 to 125 µg/mL | –
28 | CC(C)C[C@H](NC[C@H](Cc1ccccc1)NC(=O)[C@@H](NC(=O)[C@H](CCCCN)NC[C@@H](N)Cc1ccc2ccccc2c1)C(C)C)C(=O)O [Compound 2, H-2-Nalψ[CH2NH]Lys-Val-Pheψ[CH2NH]Leu-OH] | – | – | 69 µg/mL (≈ 102 µM) | 125 to 250 µg/mL | IC50 ([1]; ATCC27853, 21 h): 58 µg/mL (≈ 85.9 µM); MIC ([1]; ATCC27853, 21 h): 80 to 152 µg/mL
29 | CC(C)C[C@H](NC[C@H](Cc1ccccc1)NC(=O)[C@H](CO)NC(=O)[C@H](CCCCN)NC[C@@H](N)Cc1ccc2ccccc2c1)C(=O)O [Compound 1, H-2-Nal ψ[CH2NH]Lys-Ser-Pheψ[CH2NH]Leu-OH] | – | – | 3 µg/mL (≈ 4.53 µM) | 8 to 16 µg/mL | IC50 [1, 3]: 10 µg/mL (≈ 15.1 µM); MIC [1, 4]: 16 to 32 µg/mL; activity against MRSA (in words) [2]: most active
30 | CC[C@H](C)[C@H](NC[C@@H](N)Cc1ccc2ccccc2c1)C(=O)N[C@@H](CO)C(=O)N[C@H](CN[C@@H](CC(C)C)C(=O)O)Cc1ccccc1 [Compound 7, H-2-Nalψ[CH2NH]Ile-Ser-Pheψ[CH2NH]Leu-OH] | – | – | 69 µg/mL (≈ 107 µM) | 125 to 250 µg/mL | –
31 | CC[C@H](C)[C@H](NC[C@@H](N)Cc1ccc2ccccc2c1)C(=O)N[C@@H](Cc1ccccc1)C(=O)N[C@H](CN[C@@H](CC(C)C)C(=O)O)Cc1ccccc1 [Compound 9, H-Nalψ[CH2NH]Ile-Phe-Pheψ[CH2NH]Leu-OH] | – | – | 9 µg/mL (≈ 12.7 µM) | 16 to 32 µg/mL | –
32 | H-2-Nalψ[CH2NH]Lys-Ser-Phe-Leu-OH (H-[2Nal]KSFL-OH; also: ψ[CH2NH] reduced bond between 2-Nal1 and Lys2) [Compound 27] | 65.4 µg/mL | 37.8 µg/mL | – | – | –
33 | H-2-Nalψ[CH2NH]Lys-Ser-Pheψ[CH2NAc]Leu-OH [Compound 30] | 50 µg/mL | 26 µg/mL | – | – | –
34 | 4-AMBψ[CH2NH]Lys-Ser-Pheψ[CH2NH]Leu-OH [Compound 37] | 415 µg/mL | > 500 µg/mL | – | – | –
